PubChem BioAssay AID1963960 (Molecular Pharmacology Branch, DTP, NCI, 2024)
pIC50: −log10 of the molar value.

Test system: MDA-MB-468 spheroids with HUVEC/MSC, viability
Test: Anticancer human tumor MDA-MB-468 cell line growth inhibition [PI3K];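 also: spheroids exposed to agents for seven days before readout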;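 as to viability, T/C: 100% = DMSO vehicle control viability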
Settings: for pIC50: curve of first compound; for viability, T/C: stronger effect = lower value
Method in brief: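 Targeted small molecules plus PI3K inhibitors, half-log dose series from Cmax (default top 10 microM), were applied to heterotypic spheroids of cancer cells with HUVEC and MSCs. Viability indicated growth inhibition.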

[1] = second compound 0.0316 µM, first compound 0.0316 µM
[2] = second compound 0.0316 µM, first compound 0.1 µM
[3] = second compound 0.0316 µM, first compound 0.316 µM
[4] = second compound 0.0316 µM, first compound 1 µM
[5] = second compound 0.0316 µM, first compound 3.16 µM
[6] = second compound 0.0316 µM, first compound 10 µM
[7] = second compound 0.1 µM, first compound 0.0316 µM
[8] = second compound 0.1 µM, first compound 0.1 µM
[9] = second compound 0.1 µM, first compound 0.316 µM
[10] = second compound 0.1 µM, first compound 1 µM
[11] = second compound 0.1 µM, first compound 3.16 µM
[12] = second compound 0.1 µM, first compound 10 µM
[13] = second compound 0.316 µM, first compound 0.0316 µM
[14] = second compound 0.316 µM, first compound 0.1 µM
[15] = second compound 0.316 µM, first compound 0.316 µM
[16] = second compound 0.316 µM, first compound 1 µM
[17] = second compound 0.316 µM, first compound 3.16 µM
[18] = second compound 0.316 µM, first compound 10 µM
[19] = second compound 1 µM, first compound 0.0316 µM
[20] = second compound 1 µM, first compound 0.1 µM
[21] = second compound 1 µM, first compound 0.316 µM
[22] = second compound 1 µM, first compound 1 µM
[23] = second compound 1 µM, first compound 3.16 µM
[24] = second compound 1 µM, first compound 10 µM

SMILES: CC1(C)CCC(Nc2ncc(C(F)(F)F)c(-c3c[nH]c4c(P(C)(C)=O)c(C#N)ccc34)n2)CN1 (stereo unspecified) + CC(Nc1ncnc2nc[nH]c12)c1cc2cccc(Cl)c2c(=O)n1-c1ccccc1
- pIC50 (second compound 0.0316 µM): > 7.50
- pIC50 (second compound 0.1 µM): > 7.50
- pIC50 (second compound 0.316 µM): > 7.50
- pIC50 (second compound 1 µM): > 7.50
- pIC50 (second compound 3.16 µM): > 7.50
- pIC50 (second compound 10 µM): > 7.50
- viability, T/C [1]: 11.2%
- viability, T/C [2]: 8.83%
- viability, T/C [3]: 8.44%
- viability, T/C [4]: 8.51%
- viability, T/C [5]: 9.51%
- viability, T/C [6]: 1.74%
- viability, T/C [7]: 12.5%
- viability, T/C [8]: 11.6%
- viability, T/C [9]: 8.64%
- viability, T/C [10]: 8.66%
- viability, T/C [11]: 8.77%
- viability, T/C [12]: 1.45%
- viability, T/C [13]: 11.2%
- viability, T/C [14]: 11%
- viability, T/C [15]: 9.67%
- viability, T/C [16]: 8.74%
- viability, T/C [17]: 9.29%
- viability, T/C [18]: 1.74%
- viability, T/C [19]: 12.8%
- viability, T/C [20]: 10.6%
- viability, T/C [21]: 9.64%
- viability, T/C [22]: 9.48%
- viability, T/C [23]: 9.76%
- viability, T/C [24]: 1.16%
- viability, T/C (second compound 3.16 µM, first compound 0.0316 µM): 11.8%
- viability, T/C (second compound 3.16 µM, first compound 0.1 µM): 10.2%
- viability, T/C (second compound 3.16 µM, first compound 0.316 µM): 11.1%
- viability, T/C (second compound 3.16 µM, first compound 1 µM): 9.71%
- viability, T/C (second compound 3.16 µM, first compound 3.16 µM): 7.09%
- viability, T/C (second compound 3.16 µM, first compound 10 µM): 1.3%
- viability, T/C (second compound 10 µM, first compound 0.0316 µM): 12.6%
- viability, T/C (second compound 10 µM, first compound 0.1 µM): 10.8%
- viability, T/C (second compound 10 µM, first compound 0.316 µM): 10%
- viability, T/C (second compound 10 µM, first compound 1 µM): 10%
- viability, T/C (second compound 10 µM, first compound 3.16 µM): 7.06%
- viability, T/C (second compound 10 µM, first compound 10 µM): 1.03%

SMILES: CNC(=O)c1ccc(N2C(=S)N(c3ccc(C#N)c(C(F)(F)F)c3)C(=O)C2(C)C)cc1F + COc1c(OCCCN2CCOCC2)ccc2c3n(c(=NC(=O)c4cnc(N)nc4)nc12)CCN3
- pIC50 (second compound 0.00316 µM): < 5.00
- pIC50 (second compound 0.01 µM): < 5.00
- pIC50 (second compound 0.0316 µM): < 5.00
- pIC50 (second compound 0.1 µM): < 5.00
- pIC50 (second compound 0.316 µM): > 7.50
- pIC50 (second compound 1 µM): > 7.50
- viability, T/C (second compound 0.00316 µM, first compound 0.0316 µM): 85.4%
- viability, T/C (second compound 0.00316 µM, first compound 0.1 µM): 90.6%
- viability, T/C (second compound 0.00316 µM, first compound 0.316 µM): 88.5%
- viability, T/C (second compound 0.00316 µM, first compound 1 µM): 101%
- viability, T/C (second compound 0.00316 µM, first compound 3.16 µM): 77.4%
- viability, T/C (second compound 0.00316 µM, first compound 10 µM): 70.8%
- viability, T/C (second compound 0.01 µM, first compound 0.0316 µM): 81.9%
- viability, T/C (second compound 0.01 µM, first compound 0.1 µM): 89.8%
- viability, T/C (second compound 0.01 µM, first compound 0.316 µM): 87.8%
- viability, T/C (second compound 0.01 µM, first compound 1 µM): 86.2%
- viability, T/C (second compound 0.01 µM, first compound 3.16 µM): 79.7%
- viability, T/C (second compound 0.01 µM, first compound 10 µM): 75.6%
- viability, T/C [1]: 82.4%
- viability, T/C [2]: 80.7%
- viability, T/C [3]: 82.8%
- viability, T/C [4]: 80.2%
- viability, T/C [5]: 82.5%
- viability, T/C [6]: 60.7%
- viability, T/C [7]: 52.7%
- viability, T/C [8]: 54.2%
- viability, T/C [9]: 59.5%
- viability, T/C [10]: 57%
- viability, T/C [11]: 59.9%
- viability, T/C [12]: 49.2%
- viability, T/C [13]: 26.4%
- viability, T/C [14]: 27.4%
- viability, T/C [15]: 29.3%
- viability, T/C [16]: 30.1%
- viability, T/C [17]: 29.6%
- viability, T/C [18]: 20.8%
- viability, T/C [19]: 4.39%
- viability, T/C [20]: 4.39%
- viability, T/C [21]: 4.07%
- viability, T/C [22]: 4.23%
- viability, T/C [23]: 4.41%
- viability, T/C [24]: 2.21%

SMILES: Cn1cnc2c(F)c(Nc3ccc(Br)cc3Cl)c(C(=O)NOCCO)cc21 + COc1c(OCCCN2CCOCC2)ccc2c3n(c(=NC(=O)c4cnc(N)nc4)nc12)CCN3
- pIC50 (second compound 0.00316 µM): < 5.52
- pIC50 (second compound 0.01 µM): < 5.52
- pIC50 (second compound 0.0316 µM): 5.97
- pIC50 (second compound 0.1 µM): 6.94
- pIC50 (second compound 0.316 µM): > 8.02
- pIC50 (second compound 1 µM): > 8.02
- viability, T/C (second compound 0.00316 µM, first compound 0.00949 µM): 80.8%
- viability, T/C (second compound 0.00316 µM, first compound 0.03 µM): 88.8%
- viability, T/C (second compound 0.00316 µM, first compound 0.0949 µM): 84.4%
- viability, T/C (second compound 0.00316 µM, first compound 0.3 µM): 78.3%
- viability, T/C (second compound 0.00316 µM, first compound 0.949 µM): 62.5%
- viability, T/C (second compound 0.00316 µM, first compound 3 µM): 55.8%
- viability, T/C (second compound 0.01 µM, first compound 0.00949 µM): 74.8%
- viability, T/C (second compound 0.01 µM, first compound 0.03 µM): 76.6%
- viability, T/C (second compound 0.01 µM, first compound 0.0949 µM): 81.1%
- viability, T/C (second compound 0.01 µM, first compound 0.3 µM): 64.9%
- viability, T/C (second compound 0.01 µM, first compound 0.949 µM): 60.6%
- viability, T/C (second compound 0.01 µM, first compound 3 µM): 49.3%
- viability, T/C (second compound 0.0316 µM, first compound 0.00949 µM): 68%
- viability, T/C (second compound 0.0316 µM, first compound 0.03 µM): 69.7%
- viability, T/C (second compound 0.0316 µM, first compound 0.0949 µM): 64.2%
- viability, T/C (second compound 0.0316 µM, first compound 0.3 µM): 57.3%
- viability, T/C (second compound 0.0316 µM, first compound 0.949 µM): 53.8%
- viability, T/C (second compound 0.0316 µM, first compound 3 µM): 37.3%
- viability, T/C (second compound 0.1 µM, first compound 0.00949 µM): 55.2%
- viability, T/C (second compound 0.1 µM, first compound 0.03 µM): 47.9%
- viability, T/C (second compound 0.1 µM, first compound 0.0949 µM): 51.2%
- viability, T/C (second compound 0.1 µM, first compound 0.3 µM): 46.4%
- viability, T/C (second compound 0.1 µM, first compound 0.949 µM): 32.1%
- viability, T/C (second compound 0.1 µM, first compound 3 µM): 15.6%
- viability, T/C (second compound 0.316 µM, first compound 0.00949 µM): 26.5%
- viability, T/C (second compound 0.316 µM, first compound 0.03 µM): 23.4%
- viability, T/C (second compound 0.316 µM, first compound 0.0949 µM): 18.5%
- viability, T/C (second compound 0.316 µM, first compound 0.3 µM): 16.4%
- viability, T/C (second compound 0.316 µM, first compound 0.949 µM): 11.8%
- viability, T/C (second compound 0.316 µM, first compound 3 µM): 4.57%
- viability, T/C (second compound 1 µM, first compound 0.00949 µM): 2.75%
- viability, T/C (second compound 1 µM, first compound 0.03 µM): 2.53%
- viability, T/C (second compound 1 µM, first compound 0.0949 µM): 1.74%
- viability, T/C (second compound 1 µM, first compound 0.3 µM): 1.38%
- viability, T/C (second compound 1 µM, first compound 0.949 µM): 1.4%
- viability, T/C (second compound 1 µM, first compound 3 µM): 0.51%
